# From ChEMBL document CHEMBL4152347 (J Med Chem, 2018)
# Key:
# in vitro [1] = conditions: human, liver microsomes
# Description: Half life in human liver microsomes at 0.5 uM after 1 hr in presence of NADPH by LC-MS/MS analysis
# [2] = system: Human immunodeficiency virus 1; test: microbe, parasite or virus in culture; conditions: Human immunodeficiency virus 1, MT2
# Description: Antiviral activity against HIV1 expressing gag delta V370 mutant infected in human MT2 cells after 4 to 5 days by dual luciferase reporter gene assay
# in vitro [3] = conditions: human, MT2 cells
# Description: Cytotoxicity against human MT2 cells assessed as reduction in cell viability
# in vitro [4] = conditions: rat, liver microsomes
# Description: Half life in rat liver microsomes at 0.5 uM after 1 hr in presence of NADPH by LC-MS/MS analysis
# [5] = system: Human immunodeficiency virus 1; test: microbe, parasite or virus in culture; conditions: Human immunodeficiency virus 1, MT2; remark: listed apart in the source
# [6] = system: Human immunodeficiency virus 1; test: microbe, parasite or virus in culture; conditions: Human immunodeficiency virus 1, MT2; remark: listed apart in the source
# Description: Antiviral activity against wild type HIV1 infected in human MT2 cells after 4 to 5 days by dual luciferase reporter gene assay
# [7] = system: Human immunodeficiency virus 1; test: microbe, parasite or virus in culture; conditions: Human immunodeficiency virus 1, MT2; remark: listed apart in the source
# Description: Antiviral activity against wild type HIV1 infected in human MT2 cells after 4 to 5 days in presence of 10% FBS and 40% human serum albumin by dual luciferase reporter gene assay
# in vivo [8] = conditions: Sprague-Dawley, rat, po, 5 mg/kg
# physchem = conditions: aqueous
# Description: Aqueous solubility of the compound
# in vivo [9] = conditions: Sprague-Dawley, rat, po, 5 mg/kg; remark: listed apart in the source
Structure (SMILES),"half-life at 1 h, 0.5 µM (in vitro [1]) [h]",EC50 [2] [µM],CC50 (in vitro [3]) [µM],"half-life at 1 h, 0.5 µM (in vitro [4]) [h]",EC50 [5] [µM],EC50 [6] [µM],EC50 [7] [µM],AUC(0-t) at 24 h (in vivo [8]) [µM·h],solubility (physchem) [µg/mL],AUC(0-t) at 6 h (in vivo [9]) [µM·h]
C=C(C)[C@@H]1CC[C@]2(NCCN3CCN(S(=O)(=O)C(C)C)CC3)CC[C@]3(C)[C@H](CC[C@@H]4[C@@]5(C)CC=C(c6ccc(C(=O)O)cc6)C(C)(C)[C@@H]5CC[C@]43C)[C@@H]12,> 2,0.0642,11.9,> 2,0.0099,0.0052,,,,
C=C(C)[C@@H]1CC[C@]2(NCCN3CC4C(C3)C4NS(C)(=O)=O)CC[C@]3(C)[C@H](CC[C@@H]4[C@@]5(C)CC=C(c6ccc(C(=O)O)cc6)C(C)(C)[C@@H]5CC[C@]43C)[C@@H]12 (stereo not given in full),> 2,0.018,15.2,> 2,,0.0028,0.0213,,,
C=C(C)[C@@H]1CC[C@]2(NC(=O)NCCN3CCS(=O)(=O)CC3)CC[C@]3(C)[C@H](CC[C@@H]4[C@@]5(C)CC=C(c6ccc(C(=O)O)cc6)C(C)(C)[C@@H]5CC[C@]43C)[C@@H]12,> 2,0.0635,17.6,> 2,0.0049,0.0059,,,,
C=C(C)[C@@H]1CC[C@]2(NCCN3C[C@@H]4C[C@H]3CN4S(C)(=O)=O)CC[C@]3(C)[C@H](CC[C@@H]4[C@@]5(C)CC=C(c6ccc(C(=O)O)cc6)C(C)(C)[C@@H]5CC[C@]43C)[C@@H]12,> 2,0.0093,9.3,> 2,0.0029,0.0027,,7.08,,
C=C(C)[C@@H]1CC[C@]2(NC(=O)CCN3CCS(=O)(=O)CC3)CC[C@]3(C)[C@H](CC[C@@H]4[C@@]5(C)CC=C(c6ccc(C(=O)O)cc6)C(C)(C)[C@@H]5CC[C@]43C)[C@@H]12,> 2,0.101,16.3,> 2,0.0112,0.0068,,,,
C=C(C)[C@@H]1CC[C@]2(NCCN3CCS(=N)(=O)CC3)CC[C@]3(C)[C@H](CC[C@@H]4[C@@]5(C)CC=C(c6ccc(C(=O)O)cc6)C(C)(C)[C@@H]5CC[C@]43C)[C@@H]12,> 2,0.0075,14,> 2,0.0015,0.0011,,20.7,< 1,
C=C(C)[C@@H]1CC[C@]2(NCCN3CC4(C3)CN(S(C)(=O)=O)C4)CC[C@]3(C)[C@H](CC[C@@H]4[C@@]5(C)CC=C(c6ccc(C(=O)O)cc6)C(C)(C)[C@@H]5CC[C@]43C)[C@@H]12,> 2,0.0133,12,> 2,,0.0016,0.0074,,,
C=C(C)[C@@H]1CC[C@]2(NCCNC3CCS(=O)(=O)C3)CC[C@]3(C)[C@H](CC[C@@H]4[C@@]5(C)CC=C(c6ccc(C(=O)O)cc6)C(C)(C)[C@@H]5CC[C@]43C)[C@@H]12 (stereo not given in full),> 2,0.0116,11.1,> 2,0.0037,0.0022,0.0159,,,
C=C(C)[C@@H]1CC[C@]2(NCCN3CCC(S(C)(=O)=O)CC3)CC[C@]3(C)[C@H](CC[C@@H]4[C@@]5(C)CC=C(c6ccc(C(=O)O)cc6)C(C)(C)[C@@H]5CC[C@]43C)[C@@H]12,> 2,0.012,13.7,> 2,0.0027,0.0018,0.0061,,,
C=C(C)[C@@H]1CC[C@]2(C(=O)NCCC(=O)O)CC[C@]3(C)[C@H](CC[C@@H]4[C@@]5(C)CC=C(c6ccc(C(=O)O)cc6)C(C)(C)[C@@H]5CC[C@]43C)[C@@H]12,> 2,,,> 2,,,,79.3,,
C=C(C)[C@@H]1CC[C@]2(NCCN3CCN(S(=O)(=O)CC)CC3)CC[C@]3(C)[C@H](CC[C@@H]4[C@@]5(C)CC=C(c6ccc(C(=O)O)cc6)C(C)(C)[C@@H]5CC[C@]43C)[C@@H]12,> 2,0.0196,13.4,> 2,0.0102,0.0037,,,,
C=C(C)[C@@H]1CC[C@]2(NC(=O)CN3CCS(=O)(=O)CC3)CC[C@]3(C)[C@H](CC[C@@H]4[C@@]5(C)CC=C(c6ccc(C(=O)O)cc6)C(C)(C)[C@@H]5CC[C@]43C)[C@@H]12,> 2,0.0189,9.9,> 2,0.0035,0.0021,,,,8.74
C=C(C)[C@@H]1CC[C@]2(NCCNC3CCN(S(C)(=O)=O)C3)CC[C@]3(C)[C@H](CC[C@@H]4[C@@]5(C)CC=C(c6ccc(C(=O)O)cc6)C(C)(C)[C@@H]5CC[C@]43C)[C@@H]12 (stereo not given in full),> 2,,10.7,> 2,,0.0019,0.0137,,,
C=C(C)[C@@H]1CC[C@]2(NCCN3CCN(S(C)(=O)=O)CC3)CC[C@]3(C)[C@H](CC[C@@H]4[C@@]5(C)CC=C(c6ccc(C(=O)O)cc6)C(C)(C)[C@@H]5CC[C@]43C)[C@@H]12,> 2,0.0272,10.7,> 2,0.0052,0.0033,0.0261,28.6,< 1,
C=C(C)[C@@H]1CC[C@]2(C(=O)NCCN3CCS(=O)(=O)CC3)CC[C@]3(C)[C@H](CC[C@@H]4[C@@]5(C)CC=C(c6ccc(C(=O)O)cc6)C(C)(C)[C@@H]5CC[C@]43C)[C@@H]12,> 2,0.0605,7.9,> 2,0.0055,0.0024,,2.47,,
C=C(C)[C@@H]1CC[C@]2(NCCCN3CCS(=O)(=O)CC3)CC[C@]3(C)[C@H](CC[C@@H]4[C@@]5(C)CC=C(c6ccc(C(=O)O)cc6)C(C)(C)[C@@H]5CC[C@]43C)[C@@H]12,> 2,0.0373,15.8,> 2,0.0075,0.0035,0.0236,9.61,,9.36
C=C(C)[C@@H]1CC[C@]2(C(=O)NCCCN3CCS(=O)(=O)CC3)CC[C@]3(C)[C@H](CC[C@@H]4[C@@]5(C)CC=C(c6ccc(C(=O)O)cc6)C(C)(C)[C@@H]5CC[C@]43C)[C@@H]12,> 2,0.0428,10.6,> 2,0.0014,0.0021,,,,1.28
C=C(C)[C@@H]1CC[C@]2(NC(=O)C(C(C)C)N3CCS(=O)(=O)CC3)CC[C@]3(C)[C@H](CC[C@@H]4[C@@]5(C)CC=C(c6ccc(C(=O)O)cc6)C(C)(C)[C@@H]5CC[C@]43C)[C@@H]12 (stereo not given in full),> 2,0.727,23.5,> 2,0.0071,0.0039,,,,
C=C(C)[C@@H]1CC[C@]2(NCCN3CCCCS3(=O)=O)CC[C@]3(C)[C@H](CC[C@@H]4[C@@]5(C)CC=C(c6ccc(C(=O)O)cc6)C(C)(C)[C@@H]5CC[C@]43C)[C@@H]12,> 2,0.0368,9.53,> 2,0.0025,0.004,,4.24,,
C=C(C)[C@@H]1CC[C@]2(NCCN3CCC4(C3)CN(S(C)(=O)=O)C4)CC[C@]3(C)[C@H](CC[C@@H]4[C@@]5(C)CC=C(c6ccc(C(=O)O)cc6)C(C)(C)[C@@H]5CC[C@]43C)[C@@H]12,> 2,0.0114,11,> 2,,0.0017,0.0245,,,
C=C(C)[C@@H]1CC[C@]2(NC(=O)C(C)N3CCS(=O)(=O)CC3)CC[C@]3(C)[C@H](CC[C@@H]4[C@@]5(C)CC=C(c6ccc(C(=O)O)cc6)C(C)(C)[C@@H]5CC[C@]43C)[C@@H]12 (stereo not given in full),> 2,0.123,> 10,> 2,0.005,0.0018,,,,
C=C(C)[C@@H]1CC[C@]2(NC(=O)OCCN3CCS(=O)(=O)CC3)CC[C@]3(C)[C@H](CC[C@@H]4[C@@]5(C)CC=C(c6ccc(C(=O)O)cc6)C(C)(C)[C@@H]5CC[C@]43C)[C@@H]12,> 2,0.0939,9.9,> 2,0.0107,0.0046,,4.97,,
C=C(C)[C@@H]1CC[C@]2(NCCC3CCS(=O)(=O)CC3)CC[C@]3(C)[C@H](CC[C@@H]4[C@@]5(C)CC=C(c6ccc(C(=O)O)cc6)C(C)(C)[C@@H]5CC[C@]43C)[C@@H]12,> 2,,4.55,> 2,,0.0037,0.0375,,,
C=C(C)[C@@H]1CC[C@]2(NCCO)CC[C@]3(C)[C@H](CC[C@@H]4[C@@]5(C)CC=C(c6ccc(C(=O)O)cc6)C(C)(C)[C@@H]5CC[C@]43C)[C@@H]12,> 2,0.066,8.48,> 2,0.0099,,,,,4.98
